Source: patent US20260364184A1, “COMPOUND BASED ON OXOISOINDOLINYL-SUBSTITUTED TETRAHYDROPYRIMIDINE-DIONE AND USE THEREOF” (GLUETACS THERAPEUTICS (SHANGHAI) CO., LTD., priority 2023, published 2026)

Key:
[1] = test system: Human neuroblastoma cell line (SK-N-AS); assay: Inhibition of SK-N-AS cell proliferation (CellTiter luminescent viability); format: cell-based; conditions: Table II2, EZH2 inhibitor-based, 96 hours
Procedure: (§1) The tumor cells used herein were cultured in a cell culture medium listed in table 3 at 37 °C in an incubator with 5% CO2. Prior to experimentation, all cell lines used were correctly identified by STR profiling, and tested negative for mycoplasma contamination using a mycoplasma detection kit through routine screenings.
(§2) The IC50 values of the compounds of the present disclosure (including the compounds in Table 1, Table 2, and Examples 1-468) were determined using the CellTiter-Meiluncell Luminescent Cell Viability Assay Kit from Dalian Meilun Biotech Co., Ltd. The detailed procedure is as follows: Tumor cells were seeded in 96-well cell culture plates at the densities specified in Table 4. On the following day, the test compounds of the present disclosure were subjected to serial dilution. The dilution can be performed according to one of the following two methods: • (1) The first dilution method: The test compounds of the present disclosure (including the compounds in Table 1, Table 2, and Examples 1-468) were subjected to 5-fold serial dilutions starting from a highest concentration of 2000 μM, resulting in a total of 9 concentrations from high to low (2000, 400, 80, 16, 3.2, 0.64, 0.128, 0.0256, 0.00512 μM). Subsequently, 0.5 μL of the test compound dilution was transferred into the 96-well plate containing the cells, with each well containing 100 μL of cell culture medium. […] Into the 96-well plate, the diluted test compounds and corresponding detection reagents were added, resulting in final test compound concentrations of 500 nM and 10 nM, respectively. The experimental procedure is described below using the diluted 2 μM test compound as an example.
(§3) 0.5 μL of the aforementioned diluted compound of the present disclosure (including the compounds in Table 1, Table 2, and Examples 1-468) was added to the seeded cells in 100 μL of medium, yielding a final test compound concentration of 10 nM. After the cells were treated with the compounds of the present disclosure for a specified period, the cell viability assay reagent was added to the culture medium according to the kit's instructions to determine cell viability. […] All controls were treated using the same procedure as the compounds of the present disclosure. The growth inhibition curves for the compounds of the present disclosure were plotted using Prism GraphPad software, and the IC50 values were calculated therefrom.

[2] = molecular target: T1, human Cereblon WT GST-tagged protein (CRBN) (Homo sapiens, UniProt Q96SW2); assay: CRBN binding by HTRF (Cereblon binding kit)
T1 construct: purchased CISBIO 64BDCRBNPEH
Procedure, shortened: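 GST-tagged human Cereblon WT was incubated 3 h at room temperature with compound, thalidomide-Re tracer and Eu anti-GST antibody. Final compound concentrations were 10 to 0.00064 µM (7 points) or 2 and 0.5 µM. Inhibition rate was calculated from HTRF 665/620 nm ratios versus solvent and blank controls.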

[3] = test system: Human large cell immunoblastic lymphoma cell line SR; assay: Inhibition of SR cell proliferation (CellTiter luminescent viability); format: cell-based; conditions: Table IE1, CDK4/6 inhibitor-based, 96 hours, read-out: Inhibitory activity (IC50, nM) on tumor cell proliferation, SR
Procedure: as §1, §2, §3

CDK4 = molecular target: T2, CDK4 (Homo sapiens, UniProt P11802+Q96SW2); assay: Western blot degradation of CDK4; format: cell-based; conditions: MDA-MB-231 Cell; 24 hours
T2 construct: expression of target proteins in cells; endogenous in cells
Procedure, shortened: (§4)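 Compound-treated cells harvested; lysates denatured 5 min at 95 °C, run on SDS-PAGE, blotted to NC membrane, blocked 1 h RT, probed with antibodies. Densitometry vs DMSO → DC50; target normalised to internal control → % remaining, degradation = 1 − remaining.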

[4] = test system: Human myeloid monocytic leukemia cell line (MV-4-11); assay: Inhibition of MV-4-11 cell proliferation (CellTiter luminescent viability); format: cell-based; conditions: Table IE1, CDK4/6 inhibitor-based; MV-4-11, 96 hours; read-out: Inhibitory activity (IC50, nM) on tumor cell proliferation, MV-4-11
Procedure, shortened: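 Cells are seeded in 96-well plates, cultured at 37 °C, 5% CO2, and treated next day with 5-fold serial compound dilutions (stock series from 2000 μM; 0.5 μL into 100 μL medium). Viability is read by CellTiter-Meiluncell luminescence after the set exposure, and IC50 is taken from growth-inhibition curves.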

CDK6 = molecular target: T3, CDK6 (Homo sapiens, UniProt Q00534+Q96SW2); assay: Western blot degradation of CDK6; format: cell-based; conditions: MDA-MB-231 Cell; 24 hours
T3 construct: expression of target proteins in cells; endogenous in cells
Procedure, shortened: as §4

[5] = test system: Human Acute T Lymphoblastic Leukemia Cells (Molt-4); assay: Inhibition of Molt-4 cell proliferation (CellTiter luminescent viability); format: cell-based; conditions: Table IE1, CDK4/6 inhibitor-based; Molt-4, 96 hours; read-out: Inhibitory activity (IC50, nM) on tumor cell proliferation, Molt-4
[6] = test system: Human acute lymphocytic leukemia T lymphocytes cell line (CCRF-CEM); assay: Inhibition of CCRF-CEM cell proliferation (CellTiter luminescent viability); format: cell-based; conditions: Table IE1, CDK4/6 inhibitor-based, 96 hours, read-out: Inhibitory activity (IC50, nM) on tumor cell proliferation, CCRF-CEM

T2 sequence (P11802 whole entry): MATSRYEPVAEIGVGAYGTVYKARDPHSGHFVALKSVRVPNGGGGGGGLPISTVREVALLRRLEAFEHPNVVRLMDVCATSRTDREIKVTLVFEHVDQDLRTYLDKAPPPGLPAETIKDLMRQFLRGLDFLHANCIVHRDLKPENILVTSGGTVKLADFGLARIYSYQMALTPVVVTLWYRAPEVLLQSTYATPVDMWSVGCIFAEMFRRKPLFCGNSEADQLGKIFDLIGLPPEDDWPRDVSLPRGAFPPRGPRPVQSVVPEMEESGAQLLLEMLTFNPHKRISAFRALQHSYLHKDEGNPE
T2 sequence (Q96SW2 whole entry): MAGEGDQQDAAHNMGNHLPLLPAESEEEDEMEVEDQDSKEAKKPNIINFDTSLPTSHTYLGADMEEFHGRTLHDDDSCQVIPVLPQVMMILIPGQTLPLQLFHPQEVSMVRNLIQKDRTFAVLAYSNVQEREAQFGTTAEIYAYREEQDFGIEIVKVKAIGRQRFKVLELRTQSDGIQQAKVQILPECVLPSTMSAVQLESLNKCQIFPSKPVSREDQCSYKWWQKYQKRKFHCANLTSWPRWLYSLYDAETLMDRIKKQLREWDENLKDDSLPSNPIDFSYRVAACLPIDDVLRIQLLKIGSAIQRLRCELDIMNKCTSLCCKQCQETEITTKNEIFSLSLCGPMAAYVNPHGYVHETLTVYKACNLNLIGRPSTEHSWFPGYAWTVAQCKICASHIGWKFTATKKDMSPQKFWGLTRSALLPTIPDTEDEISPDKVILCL
T2 sequence (Q16531 whole entry partner): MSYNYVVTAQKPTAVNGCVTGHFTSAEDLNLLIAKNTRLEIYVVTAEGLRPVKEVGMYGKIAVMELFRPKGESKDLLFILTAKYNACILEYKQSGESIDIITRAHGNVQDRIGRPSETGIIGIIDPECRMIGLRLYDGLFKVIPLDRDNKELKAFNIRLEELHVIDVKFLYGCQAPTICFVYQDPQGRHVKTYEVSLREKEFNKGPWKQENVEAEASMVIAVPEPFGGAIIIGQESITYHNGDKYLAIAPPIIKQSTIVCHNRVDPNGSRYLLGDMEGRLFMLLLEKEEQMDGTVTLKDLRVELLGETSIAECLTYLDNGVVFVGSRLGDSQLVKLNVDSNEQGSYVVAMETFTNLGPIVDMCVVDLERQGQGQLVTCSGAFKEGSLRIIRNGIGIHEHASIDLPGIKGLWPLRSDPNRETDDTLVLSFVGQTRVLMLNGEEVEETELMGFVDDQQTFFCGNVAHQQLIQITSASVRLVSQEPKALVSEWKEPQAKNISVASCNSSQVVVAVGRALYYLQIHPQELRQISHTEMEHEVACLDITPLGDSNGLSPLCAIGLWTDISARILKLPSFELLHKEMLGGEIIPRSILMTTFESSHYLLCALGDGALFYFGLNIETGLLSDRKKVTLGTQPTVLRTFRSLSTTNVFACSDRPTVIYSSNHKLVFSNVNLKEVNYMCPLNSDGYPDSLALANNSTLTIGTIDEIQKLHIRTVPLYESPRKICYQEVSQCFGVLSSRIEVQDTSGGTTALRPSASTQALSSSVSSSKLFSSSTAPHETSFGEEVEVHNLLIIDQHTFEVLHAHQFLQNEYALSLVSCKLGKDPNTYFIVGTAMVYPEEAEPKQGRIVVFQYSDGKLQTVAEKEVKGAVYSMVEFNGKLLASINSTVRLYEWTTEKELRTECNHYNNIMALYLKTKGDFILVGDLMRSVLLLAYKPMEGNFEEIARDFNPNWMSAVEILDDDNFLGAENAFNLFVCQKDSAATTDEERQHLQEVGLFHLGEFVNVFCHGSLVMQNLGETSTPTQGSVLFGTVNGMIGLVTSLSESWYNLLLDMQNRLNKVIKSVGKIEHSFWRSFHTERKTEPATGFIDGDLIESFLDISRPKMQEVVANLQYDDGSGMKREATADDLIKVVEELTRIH
T3 sequence (Q00534 whole entry): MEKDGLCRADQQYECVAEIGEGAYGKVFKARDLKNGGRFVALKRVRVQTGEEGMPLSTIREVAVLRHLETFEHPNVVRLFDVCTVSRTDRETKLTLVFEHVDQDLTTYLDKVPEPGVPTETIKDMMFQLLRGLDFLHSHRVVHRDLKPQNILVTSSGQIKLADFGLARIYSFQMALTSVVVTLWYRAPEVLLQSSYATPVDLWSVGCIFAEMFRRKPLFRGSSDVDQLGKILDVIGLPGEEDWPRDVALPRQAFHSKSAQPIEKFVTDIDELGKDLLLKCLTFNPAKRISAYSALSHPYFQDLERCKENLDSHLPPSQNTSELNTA
T3 sequence (Q96SW2 whole entry): as the sequence (Q96SW2 whole entry) above
T3 sequence (Q16531 whole entry partner): as the sequence (Q16531 whole entry partner) above
T1 sequence (Q96SW2 whole entry): as the sequence (Q96SW2 whole entry) above

Inhibition Rate at 0.5 μM (%) ([2]; 0.5 μM) | Inhibition Rate at 2 μM (%) ([2]; 2 μM) | IC50 [3] [nM] | IC50 [4] [nM] | Degradation of substrate protein CDK6 (substrate protein remaining %) (CDK6) | IC50 [5] [nM] | IC50 [6] [nM] | Structure (SMILES) | inhibition at 0.01 µM ([1]; 10 nM, read-out: Inhibition Rate at 10 nM (%)) [%] | inhibition at 0.5 µM ([1]; 500 nM, read-out: Inhibition Rate at 500 nM (%)) [%] | Degradation of substrate protein CDK4 (substrate protein remaining %) (CDK4)
a2 (20% < a2 ≤ 30%) | a5 (53% < a5 ≤ 60%) | 400 to 800 | 10 to 50 | A (0%≤substrate protein remaining %≤80%) |  |  | Cc1nc2c(F)cc(-c3nc(Nc4ccc(CN5CCN(CC6CCN(c7cccc8c7C(=O)N(N7CCC(=O)NC7=O)C8=O)CC6)CC5)cn4)ncc3F)cc2n1C(C)C [GT-06663, 2-(2,4-dioxotetrahydropyrimidin-1(2H)-yl)-4-(4-((4-((6-((5-fluoro-4-(4-fluoro-1-isopropyl-2-methyl-1H-benzo[d]imidazol-6-yl)pyrimidin-2-yl)amino)pyridin-3-yl)methyl)piperazin-1-yl)methyl)piperidin-1-yl)isoindoline-1,3-dione] |  |  | B (80%<substrate protein remaining %≤100%)
 |  | 100 to 300 | 300 to 400 | A (0%≤substrate protein remaining %≤80%) |  |  | Cc1nc2c(F)cc(-c3nc(Nc4ccc(N5CCC(N6CCN(Cc7ccc8c(c7)C(=O)N(N7CCC(=O)NC7=O)C8=O)CC6)CC5)cn4)ncc3F)cc2n1C(C)C [GT-06737, 2-(2,4-dioxotetrahydropyrimidin-1(2H)-yl)-5-((4-(1-(6-((5-fluoro-4-(4-fluoro-1-isopropyl-2-methyl-1H-benzo[d]imidazol-6-yl)pyrimidin-2-yl)amino)pyridin-3-yl)piperidin-4-yl)piperazin-1-yl)methyl)isoindoline-1,3-dione] |  |  | B (80%<substrate protein remaining %≤100%)

Further lines, the compound ahead of its results:

Structure (SMILES) | Inhibition Rate at 0.5 μM (%) ([2]; 0.5 μM) | Inhibition Rate at 2 μM (%) ([2]; 2 μM) | IC50 [3] [nM] | IC50 [4] [nM] | Degradation of substrate protein CDK6 (substrate protein remaining %) (CDK6) | IC50 [5] [nM] | IC50 [6] [nM] | inhibition at 0.01 µM ([1]; 10 nM, read-out: Inhibition Rate at 10 nM (%)) [%] | inhibition at 0.5 µM ([1]; 500 nM, read-out: Inhibition Rate at 500 nM (%)) [%] | Degradation of substrate protein CDK4 (substrate protein remaining %) (CDK4)
CCN(c1cc(-c2ccc(CN3CCN(CC4CCN(c5cccc6c5C(=O)N(N5CCC(=O)NC5=O)C6=O)CC4)CC3)cc2)cc(C(=O)NCc2c(C)cc(C)[nH]c2=O)c1C)C1CCOCC1 [GT-08519, N-((4,6-dimethyl-2-oxo-1,2-dihydropyridin-3-yl)methyl)-4′-((4-((1-(2-(2,4-dioxotetrahydropyrimidin-1(2H)-yl)-1,3-dioxoisoindolin-4-yl)piperidin-4-yl)methyl)piperazin-1-yl)methyl)-5-(ethyl(tetrahydro-2H-pyran-4-yl)amino)-4-methyl-[1,1′-biphenyl]-3-carboxamide] |  |  |  |  |  |  |  | 10 to 15 | 20 to 30 | 
Cc1nc2c(F)cc(-c3nc(Nc4ccc(N5CCC(N(C)CC6CCN(c7ccc8c(c7)C(=O)N(N7CCC(=O)NC7=O)C8=O)CC6)CC5)cn4)ncc3F)cc2n1C(C)C [GT-06733, 2-(2,4-dioxotetrahydropyrimidin-1(2H)-yl)-5-(4-(((1-(6-((5-fluoro-4-(4-fluoro-1-isopropyl-2-methyl-1H-benzo[d]imidazol-6-yl)pyrimidin-2-yl)amino)pyridin-3-yl)piperidin-4-yl)(methyl)amino)methyl)piperidin-1-yl)isoindoline-1,3-dione] |  |  | 100 to 300 | 10 to 50 | A (0%≤substrate protein remaining %≤80%) | 100 to 300 | 100 to 300 |  |  | A (0%≤substrate protein remaining %≤80%)
Cc1nc2c(F)cc(-c3nc(Nc4ccc(N5CCC(N(C)CC6CCN(c7cccc8c7C(=O)N(N7CCC(=O)NC7=O)C8=O)CC6)CC5)cn4)ncc3F)cc2n1C(C)C [GT-06734, 2-(2,4-dioxotetrahydropyrimidin-1(2H)-yl)-4-(4-(((1-(6-((5-fluoro-4-(4-fluoro-1-isopropyl-2-methyl-1H-benzo[d]imidazol-6-yl)pyrimidin-2-yl)amino)pyridin-3-yl)piperidin-4-yl)(methyl)amino)methyl)piperidin-1-yl)isoindoline-1,3-dione] |  |  | 100 to 300 | 50 to 100 | A (0%≤substrate protein remaining %≤80%) | 400 to 800 | 400 to 800 |  |  | A (0%≤substrate protein remaining %≤80%)
